Results from PubChem BioAssay (NCI).
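96-well plates; 48 h exposure; 5 concentrations. Endpoints by linear interpolation between flanking doses. Not reached: highest tested concentration assigned. TGI denotes the concentration required for complete inhibition of growth.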

Legend:
Test in all cases: NCI tumour cell line growth inhibition, 48 h
786-0 renal = tested on: 786-0 renal
SF-295 CNS = tested on: SF-295 CNS
KM20L2 colon = tested on: KM20L2 colon
NCI-H522 lung = tested on: NCI-H522 lung
OVCAR-3 ovarian = tested on: OVCAR-3 ovarian
A549 NSCLC = tested on: A549 NSCLC
SK-MEL-28 melanoma = tested on: SK-MEL-28 melanoma
OVCAR-5 ovarian = tested on: OVCAR-5 ovarian
RXF 393 renal = tested on: RXF 393 renal
COLO 205 colon = tested on: COLO 205 colon
HCT-116 colon = tested on: HCT-116 colon
SK-OV-3 ovarian = tested on: SK-OV-3 ovarian
HOP-62 NSCLC = tested on: HOP-62 NSCLC
LOX IMVI melanoma = tested on: LOX IMVI melanoma
K-562 leukemia = tested on: K-562 leukemia
NCI-H460 lung = tested on: NCI-H460 lung
IGROV1 ovarian = tested on: IGROV1 ovarian
EKVX NSCLC = tested on: EKVX NSCLC
SF-268 CNS = tested on: SF-268 CNS
SK-MEL-5 melanoma = tested on: SK-MEL-5 melanoma
SK-MEL-2 melanoma = tested on: SK-MEL-2 melanoma
TK-10 renal = tested on: TK-10 renal
ACHN renal = tested on: ACHN renal
UACC-257 melanoma = tested on: UACC-257 melanoma
MALME-3M melanoma = tested on: MALME-3M melanoma
DMS 114 small cell lung = tested on: DMS 114 small cell lung
U251 CNS = tested on: U251 CNS
OVCAR-8 ovarian = tested on: OVCAR-8 ovarian
DMS 273 small cell lung = tested on: DMS 273 small cell lung
UACC-62 melanoma = tested on: UACC-62 melanoma
SN12C renal = tested on: SN12C renal
HOP-92 NSCLC = tested on: HOP-92 NSCLC
SF-539 CNS = tested on: SF-539 CNS
CCRF-CEM leukemia = tested on: CCRF-CEM leukemia
MOLT-4 leukemia = tested on: MOLT-4 leukemia
CAKI-1 renal = tested on: CAKI-1 renal
SW-620 colon = tested on: SW-620 colon
M19-MEL melanoma = tested on: M19-MEL melanoma
RPMI-8226 leukemia = tested on: RPMI-8226 leukemia
DLD-1 colon = tested on: DLD-1 colon
NCI-H226 lung = tested on: NCI-H226 lung
HL-60(TB) leukemia = tested on: HL-60(TB) leukemia
HCC-2998 colon = tested on: HCC-2998 colon
HT29 colon = tested on: HT29 colon
KM12 colon = tested on: KM12 colon
SNB-19 CNS = tested on: SNB-19 CNS
NCI-H23 lung = tested on: NCI-H23 lung
RXF-631 renal = tested on: RXF-631 renal
HCT-15 colon = tested on: HCT-15 colon
LXFL 529 NSCLC = tested on: LXFL 529 NSCLC
SR leukemia = tested on: SR leukemia
HOP-18 NSCLC = tested on: HOP-18 NSCLC
XF 498 CNS = tested on: XF 498 CNS
OVCAR-4 ovarian = tested on: OVCAR-4 ovarian
M14 melanoma = tested on: M14 melanoma
UO-31 renal = tested on: UO-31 renal
SNB-75 CNS = tested on: SNB-75 CNS
SNB-78 CNS = tested on: SNB-78 CNS

With `COC(=O)C(=Cc1cc(OC)c(OC)c(OC)c1-c1cc2c(cc1C1(C)OCCS1)OCO2)C(=O)OC` (configuration not stated) the TGI (786-0 renal) was greater than 100 µM, the TGI (SF-295 CNS) was greater than 100 µM and the TGI (KM20L2 colon) was greater than 100 µM. It also gave a TGI (NCI-H522 lung) of 55.5 µM, a TGI (OVCAR-3 ovarian) of 54.6 µM and a TGI (A549 NSCLC) greater than 100 µM. It also gave a TGI (SK-MEL-28 melanoma) greater than 100 µM, a TGI (OVCAR-5 ovarian) greater than 100 µM and a TGI (RXF 393 renal) greater than 100 µM. For the same compound, the TGI (COLO 205 colon) was greater than 100 µM, the TGI (HCT-116 colon) was greater than 100 µM and the TGI (SK-OV-3 ovarian) was greater than 100 µM. For the same compound, the TGI (HOP-62 NSCLC) was greater than 100 µM, the TGI (LOX IMVI melanoma) was greater than 100 µM and the TGI (K-562 leukemia) was greater than 100 µM. It also gave a TGI (NCI-H460 lung) greater than 100 µM, a TGI (IGROV1 ovarian) greater than 100 µM and a TGI (EKVX NSCLC) greater than 100 µM. For the same compound, the TGI (SF-268 CNS) was greater than 100 µM, the TGI (SK-MEL-5 melanoma) was greater than 100 µM and the TGI (SK-MEL-2 melanoma) was 69.6 µM. It also gave a TGI (TK-10 renal) greater than 100 µM, a TGI (ACHN renal) greater than 100 µM and a TGI (UACC-257 melanoma) greater than 100 µM. The TGI (MALME-3M melanoma) was greater than 100 µM, the TGI (DMS 114 small cell lung) was greater than 100 µM and the TGI (U251 CNS) was greater than 100 µM. For the same compound, the TGI (OVCAR-8 ovarian) was greater than 100 µM, the TGI (DMS 273 small cell lung) was 75.1 µM and the TGI (UACC-62 melanoma) was greater than 100 µM. It also gave a TGI (SN12C renal) greater than 100 µM, a TGI (HOP-92 NSCLC) of 37.6 µM and a TGI (SF-539 CNS) greater than 100 µM. For the same compound, the TGI (CCRF-CEM leukemia) was greater than 100 µM, the TGI (MOLT-4 leukemia) was greater than 100 µM and the TGI (CAKI-1 renal) was greater than 100 µM. The TGI (SW-620 colon) was greater than 100 µM, the TGI (M19-MEL melanoma) was greater than 100 µM and the TGI (RPMI-8226 leukemia) was greater than 100 µM. The TGI (DLD-1 colon) was greater than 100 µM, the TGI (NCI-H226 lung) was greater than 100 µM and the TGI (HL-60(TB) leukemia) was greater than 100 µM. The TGI (HCC-2998 colon) was greater than 100 µM, the TGI (HT29 colon) was greater than 100 µM and the TGI (KM12 colon) was 79.8 µM. It also gave a TGI (SNB-19 CNS) greater than 100 µM, a TGI (NCI-H23 lung) greater than 100 µM and a TGI (RXF-631 renal) greater than 100 µM. It also gave a TGI (HCT-15 colon) greater than 100 µM, a TGI (LXFL 529 NSCLC) greater than 100 µM and a TGI (SR leukemia) greater than 100 µM.
For `COc1ccc(CCN(C)C2CCC(C#N)(c3ccc(OC)c(OC)c3)CC2)cc1OC` (configuration not stated), the TGI (786-0 renal) was greater than 100 µM, the TGI (SF-295 CNS) was greater than 100 µM and the TGI (KM20L2 colon) was greater than 100 µM. It also gave a TGI (HOP-18 NSCLC) greater than 100 µM, a TGI (OVCAR-3 ovarian) greater than 100 µM and a TGI (A549 NSCLC) greater than 100 µM. For the same compound, the TGI (SK-MEL-28 melanoma) was greater than 100 µM, the TGI (XF 498 CNS) was greater than 100 µM and the TGI (OVCAR-5 ovarian) was greater than 100 µM. For the same compound, the TGI (RXF 393 renal) was greater than 100 µM, the TGI (COLO 205 colon) was 91.4 µM and the TGI (HCT-116 colon) was greater than 100 µM. The TGI (SK-OV-3 ovarian) was greater than 100 µM, the TGI (HOP-62 NSCLC) was greater than 100 µM and the TGI (LOX IMVI melanoma) was greater than 100 µM. For the same compound, the TGI (OVCAR-4 ovarian) was greater than 100 µM, the TGI (K-562 leukemia) was greater than 100 µM and the TGI (NCI-H460 lung) was greater than 100 µM. It also gave a TGI (IGROV1 ovarian) greater than 100 µM, a TGI (EKVX NSCLC) greater than 100 µM and a TGI (SF-268 CNS) greater than 100 µM. It also gave a TGI (SK-MEL-5 melanoma) greater than 100 µM, a TGI (SK-MEL-2 melanoma) greater than 100 µM and a TGI (TK-10 renal) greater than 100 µM. For the same compound, the TGI (ACHN renal) was greater than 100 µM, the TGI (UACC-257 melanoma) was greater than 100 µM and the TGI (MALME-3M melanoma) was greater than 100 µM. The TGI (M14 melanoma) was greater than 100 µM, the TGI (U251 CNS) was greater than 100 µM and the TGI (OVCAR-8 ovarian) was greater than 100 µM. For the same compound, the TGI (DMS 273 small cell lung) was greater than 100 µM, the TGI (UACC-62 melanoma) was greater than 100 µM and the TGI (SN12C renal) was greater than 100 µM. For the same compound, the TGI (HOP-92 NSCLC) was greater than 100 µM, the TGI (SF-539 CNS) was greater than 100 µM and the TGI (CCRF-CEM leukemia) was greater than 100 µM. It also gave a TGI (MOLT-4 leukemia) greater than 100 µM, a TGI (SW-620 colon) greater than 100 µM and a TGI (M19-MEL melanoma) greater than 100 µM. The TGI (RPMI-8226 leukemia) was greater than 100 µM, the TGI (DLD-1 colon) was greater than 100 µM and the TGI (NCI-H226 lung) was greater than 100 µM. For the same compound, the TGI (HL-60(TB) leukemia) was greater than 100 µM, the TGI (HCC-2998 colon) was greater than 100 µM and the TGI (HT29 colon) was greater than 100 µM. It also gave a TGI (UO-31 renal) greater than 100 µM, a TGI (KM12 colon) greater than 100 µM and a TGI (SNB-19 CNS) greater than 100 µM. It also gave a TGI (NCI-H23 lung) greater than 100 µM, a TGI (SNB-75 CNS) greater than 100 µM and a TGI (RXF-631 renal) greater than 100 µM. It also gave a TGI (HCT-15 colon) greater than 100 µM, a TGI (LXFL 529 NSCLC) greater than 100 µM and a TGI (SR leukemia) greater than 100 µM.
With `O=C1N=C2Sc3ccc4ccccc4c3N2C1=O` the TGI (786-0 renal) was 36.1 µM, the TGI (SF-295 CNS) was 36.5 µM and the TGI (KM20L2 colon) was 64.4 µM. The TGI (HOP-18 NSCLC) was 33 µM, the TGI (OVCAR-3 ovarian) was 37.1 µM and the TGI (A549 NSCLC) was 41.2 µM. For the same compound, the TGI (SK-MEL-28 melanoma) was 56.3 µM, the TGI (XF 498 CNS) was 41.3 µM and the TGI (OVCAR-5 ovarian) was greater than 100 µM. It also gave a TGI (RXF 393 renal) of 37 µM, a TGI (COLO 205 colon) greater than 100 µM and a TGI (HCT-116 colon) of 32.9 µM. For the same compound, the TGI (SK-OV-3 ovarian) was 31.6 µM, the TGI (HOP-62 NSCLC) was 39.8 µM and the TGI (LOX IMVI melanoma) was 38.2 µM. It also gave a TGI (OVCAR-4 ovarian) of 32.7 µM, a TGI (K-562 leukemia) greater than 100 µM and a TGI (NCI-H460 lung) of 70.2 µM. For the same compound, the TGI (IGROV1 ovarian) was 57.1 µM, the TGI (EKVX NSCLC) was 47.9 µM and the TGI (SF-268 CNS) was 52.3 µM. The TGI (SK-MEL-5 melanoma) was 58 µM, the TGI (SK-MEL-2 melanoma) was 71.9 µM and the TGI (TK-10 renal) was 81.6 µM. It also gave a TGI (ACHN renal) of 82.3 µM, a TGI (UACC-257 melanoma) of 96.8 µM and a TGI (SNB-78 CNS) of 79.5 µM. For the same compound, the TGI (MALME-3M melanoma) was 47.9 µM, the TGI (DMS 114 small cell lung) was greater than 100 µM and the TGI (M14 melanoma) was 73.8 µM. The TGI (U251 CNS) was 39.6 µM, the TGI (OVCAR-8 ovarian) was 34 µM and the TGI (DMS 273 small cell lung) was 53.2 µM. For the same compound, the TGI (UACC-62 melanoma) was greater than 100 µM, the TGI (SN12C renal) was 43.8 µM and the TGI (HOP-92 NSCLC) was 30.6 µM. The TGI (SF-539 CNS) was 36.6 µM, the TGI (CCRF-CEM leukemia) was greater than 100 µM and the TGI (MOLT-4 leukemia) was greater than 100 µM. The TGI (CAKI-1 renal) was 46.2 µM, the TGI (SW-620 colon) was 49.1 µM and the TGI (M19-MEL melanoma) was greater than 100 µM. It also gave a TGI (RPMI-8226 leukemia) greater than 100 µM, a TGI (DLD-1 colon) of 95 µM and a TGI (NCI-H226 lung) of 57 µM. The TGI (HL-60(TB) leukemia) was greater than 100 µM, the TGI (HCC-2998 colon) was 68.7 µM and the TGI (HT29 colon) was 96.7 µM. It also gave a TGI (UO-31 renal) of 33.3 µM, a TGI (KM12 colon) greater than 100 µM and a TGI (SNB-19 CNS) of 45.8 µM. For the same compound, the TGI (NCI-H23 lung) was 53.3 µM, the TGI (SNB-75 CNS) was 40.7 µM and the TGI (RXF-631 renal) was 51.9 µM. For the same compound, the TGI (HCT-15 colon) was 61.9 µM, the TGI (LXFL 529 NSCLC) was 37.7 µM and the TGI (SR leukemia) was greater than 100 µM.
